Laboratory results as given in the supplement of paper PMC6045584.
± gives the standard deviation of the averaged measurements.

Experiments:
ERLOTINIB = compound: C#Cc1cccc(Nc2ncnc3cc(OCCOC)c(OCCOC)cc23)c1 [ERLOTINIB]; experiment: surviving fraction relative to DMSO-only wells; higher = less growth inhibition; settings: exposure time: 5 days
How it was run: (§1)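 Lines were retained only if, across three screens, replicate Pearson r was >0.7 and median Z' was >0.3. Viability was measured as CellTiter-Glo luminescence and reported as surviving fraction relative to the median of DMSO-only wells. Readings followed 10 minutes at room temperature, after log-phase tumour cells seeded at 250–500 per well in 384-well plates had been exposed, from 24 hours after seeding, continuously for five days to inhibitors at 0.5, 1, 5, 10, 50, 100, 500 and 1000 nM.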

VINORELBINE = compound: CCC1=C[C@@H]2CN(C1)Cc1c([nH]c3ccccc13)[C@@](C(=O)OC)(c1cc3c(cc1OC)N(C)[C@H]1[C@@](O)(C(=O)OC)[C@H](OC(C)=O)[C@]4(CC)C=CCN5CC[C@]31[C@@H]54)C2 [VINORELBINE]; experiment: as above; settings: exposure time: 5 days
How it was run: as §1

Row | Test System | surviving fraction (ERLOTINIB; 0.5 nM) | surviving fraction (ERLOTINIB; 1 nM) | surviving fraction (ERLOTINIB; 5 nM) | surviving fraction (ERLOTINIB; 100 nM) | surviving fraction (ERLOTINIB; 500 nM) | surviving fraction (ERLOTINIB; 1000 nM) | surviving fraction (VINORELBINE; 0.5 nM) | surviving fraction (VINORELBINE; 1 nM) | surviving fraction (VINORELBINE; 5 nM) | surviving fraction (VINORELBINE; 10 nM) | surviving fraction (VINORELBINE; 50 nM) | surviving fraction (VINORELBINE; 100 nM) | surviving fraction (VINORELBINE; 500 nM) | surviving fraction (VINORELBINE; 1000 nM) | surviving fraction (ERLOTINIB; 10 nM) | surviving fraction (ERLOTINIB; 50 nM)
1 | SG28 HEADNECK | 1.2 ± 0.12 | 1.1 ± 0.021 | 1.13 ± 0.07 | 1.097 ± 0.0071 | 0.546 ± 0.052 | 1.23 ± 0.1 | 1.17 ± 0.22 | 1.04 ± 0.061 | 0.998 ± 0.099 | 0.861 ± 0.13 | 0.589 ± 0.087 | 0.538 ± 0.11 | 0.521 ± 0.016 | 0.542 ± 0.071 | – | –
2 | SG31 HEADNECK | 1.29 ± 0.38 | 1.29 ± 0.13 | 1.03 ± 0.11 | 0.762 ± 0.059 | 0.716 ± 0.2 | 0.667 ± 0.21 | 1.08 ± 0.15 | 1.19 ± 0.14 | 0.848 ± 0.12 | 0.82 ± 0.11 | 0.369 ± 0.04 | 0.315 ± 0.021 | 0.308 ± 0.057 | 0.38 ± 0.072 | 0.863 ± 0.092 | 1.08 ± 0.18
3 | SG32 HEADNECK | 1.14 ± 0.11 | 1.11 ± 0.092 | 1.1 ± 0.29 | 1.11 ± 0.092 | 0.795 ± 0.067 | 1.26 ± 0.28 | 1.32 ± 0.21 | 1.18 ± 0.3 | 0.81 ± 0.042 | 0.621 ± 0.047 | 0.258 ± 0.041 | 0.302 ± 0.053 | 0.409 ± 0.076 | 0.437 ± 0.048 | 1.03 ± 0.18 | 1.12 ± 0.14
4 | SG43 HEADNECK | 1.06 ± 0.2 | 0.978 ± 0.049 | 0.882 ± 0.18 | 0.458 ± 0.16 | 0.265 ± 0.032 | 0.335 ± 0.097 | 1.04 ± 0.14 | 1.13 ± 0.097 | 0.785 ± 0.095 | 0.669 ± 0.075 | 0.47 ± 0.036 | 0.364 ± 0.093 | 0.242 ± 0.066 | 0.138 ± 0.066 | 0.734 ± 0.17 | 0.689 ± 0.13
5 | SIHA CERVIX | 1.1 ± 0.05 | 1.075 ± 0.0096 | 1.12 ± 0.074 | 1.08 ± 0.099 | – | 1.06 ± 0.038 | 1.09 ± 0.064 | 1.14 ± 0.13 | 1.12 ± 0.027 | 1.03 ± 0.064 | 0.324 ± 0.016 | 0.277 ± 0.085 | 0.341 ± 0.022 | 0.327 ± 0.055 | – | 1.1 ± 0.067
6 | SJSA1 BONE | 1.69 ± 0.11 | 0.267 ± 0.022 | 1.55 ± 0.035 | 1.76 ± 0.13 | 1.75 ± 0.1 | – | 1.03 ± 0.021 | 1 ± 0.041 | 1.04 ± 0.076 | 0.971 ± 0.033 | 0.499 ± 0.029 | 0.211 ± 0.022 | 0.0877 ± 0.009 | 0.0907 ± 0.0081 | 0.189 ± 0.0056 | 1.02 ± 0.032
7 | SKBR3 BREAST | 1.11 ± 0.13 | 1.1 ± 0.15 | 1.07 ± 0.15 | 1.05 ± 0.08 | 1.04 ± 0.15 | 0.874 ± 0.06 | 0.957 ± 0.093 | 1.17 ± 0.035 | 0.532 ± 0.12 | 0.291 ± 0.058 | 0.146 ± 0.013 | 0.156 ± 0.019 | 0.179 ± 0.0087 | 0.182 ± 0.015 | 1.15 ± 0.1 | 1.11 ± 0.024
8 | SNU475 LIVER | 1.01 ± 0.03 | – | 0.974 ± 0.064 | 1 ± 0.047 | 0.909 ± 0.012 | 0.88 ± 0.057 | 0.982 ± 0.019 | 0.998 ± 0.011 | 1.01 ± 0.029 | 1 ± 0.038 | 0.386 ± 0.041 | 0.197 ± 0.021 | 0.17 ± 0.019 | 0.204 ± 0.032 | 0.982 ± 0.044 | 0.957 ± 0.03
9 | SUM44 BREAST | 1.31 ± 0.45 | 1.19 ± 0.29 | 1.28 ± 0.4 | 1.32 ± 0.36 | 1.39 ± 0.53 | 1.29 ± 0.38 | 1.01 ± 0.068 | 0.972 ± 0.034 | 0.668 ± 0.068 | 0.387 ± 0.024 | 0.258 ± 0.013 | 0.225 ± 0.023 | 0.264 ± 0.014 | 0.256 ± 0.024 | 1.21 ± 0.26 | 1.34 ± 0.49
10 | SUM149 BREAST | 1.1 ± 0.12 | 1.11 ± 0.12 | 1.01 ± 0.13 | 0.75 ± 0.03 | 0.454 ± 0.042 | 0.434 ± 0.033 | 1.07 ± 0.072 | 1.11 ± 0.038 | 1.03 ± 0.059 | 0.768 ± 0.076 | 0.052 ± 0.0027 | 0.0443 ± 0.0076 | 0.0563 ± 0.0047 | 0.061 ± 0.0046 | 0.966 ± 0.082 | 0.922 ± 0.13
11 | SUM149.B1*.S BREAST | 1.11 ± 0.071 | 1.12 ± 0.021 | 1.09 ± 0.065 | 1.08 ± 0.013 | 1.07 ± 0.069 | 1.08 ± 0.079 | 1.11 ± 0.042 | 1.06 ± 0.05 | 1.09 ± 0.057 | 0.994 ± 0.015 | 0.338 ± 0.038 | 0.154 ± 0.017 | 0.171 ± 0.019 | 0.193 ± 0.0067 | 1.09 ± 0.017 | 1.15 ± 0.048
12 | SUM159 BREAST | 1.11 ± 0.039 | 1.1 ± 0.033 | 1.09 ± 0.023 | 1.05 ± 0.015 | 1.07 ± 0.012 | 1.06 ± 0.016 | 0.966 ± 0.14 | 0.944 ± 0.2 | 0.941 ± 0.2 | 0.908 ± 0.23 | 0.423 ± 0.19 | 0.156 ± 0.052 | 0.129 ± 0.053 | 0.12 ± 0.046 | 1.07 ± 0.024 | 1.07 ± 0.013
13 | SYO1 SYNOVIAL | 1.02 ± 0.016 | 1.04 ± 0.034 | 1.03 ± 0.017 | 1.01 ± 0.015 | 1.02 ± 0.028 | – | 1.03 ± 0.021 | 1 ± 0.027 | 0.818 ± 0.056 | 0.429 ± 0.062 | 0.114 ± 0.011 | 0.0666 ± 0.0041 | 0.052 ± 0.0061 | 0.0546 ± 0.005 | 0.986 ± 0.067 | 1.01 ± 0.023
14 | T47D BREAST | 1.13 ± 0.059 | 1.08 ± 0.052 | 1.13 ± 0.084 | 1.17 ± 0.048 | 1.16 ± 0.084 | 1.12 ± 0.039 | 1.03 ± 0.026 | 1.01 ± 0.03 | 0.735 ± 0.026 | 0.609 ± 0.023 | 0.356 ± 0.0061 | 0.341 ± 0.016 | 0.369 ± 0.025 | 0.373 ± 0.013 | 1.09 ± 0.028 | 1.18 ± 0.039
15 | U2OS BONE | 1.06 ± 0.016 | – | – | 1.04 ± 0.028 | 1.02 ± 0.014 | – | 1.09 ± 0.022 | 1.03 ± 0.044 | 0.993 ± 0.032 | 0.954 ± 0.04 | 0.569 ± 0.036 | 0.273 ± 0.023 | 0.116 ± 0.0097 | 0.0883 ± 0.012 | – | 1.11 ± 0.015
16 | VCAP PROSTATE | 1 ± 0.042 | 0.988 ± 0.16 | 1.17 ± 0.089 | 1.08 ± 0.084 | 1.11 ± 0.05 | 1.09 ± 0.093 | 1.1 ± 0.096 | 1.02 ± 0.035 | 0.64 ± 0.04 | 0.299 ± 0.031 | 0.0883 ± 0.012 | 0.0827 ± 0.021 | 0.122 ± 0.0049 | 0.148 ± 0.022 | 1.15 ± 0.057 | 1.13 ± 0.093
17 | VP229 BREAST | 1.05 ± 0.087 | 1.21 ± 0.12 | 1.17 ± 0.14 | 0.825 ± 0.048 | 0.568 ± 0.048 | 0.413 ± 0.06 | 1.13 ± 0.18 | 0.962 ± 0.062 | 0.958 ± 0.098 | 0.8 ± 0.048 | 0.351 ± 0.043 | 0.297 ± 0.016 | 0.275 ± 0.012 | 0.245 ± 0.014 | 1.1 ± 0.086 | 1.06 ± 0.091
18 | YAMATO SYNOVIAL | 1.28 ± 0.12 | 1.29 ± 0.088 | 1.43 ± 0.079 | 1.35 ± 0.014 | 1.31 ± 0.074 | 1.2 ± 0.15 | 1.04 ± 0.06 | 1.08 ± 0.042 | 1 ± 0.024 | 0.646 ± 0.05 | 0.391 ± 0.036 | 0.36 ± 0.014 | 0.346 ± 0.015 | 0.397 ± 0.0053 | 1.26 ± 0.036 | 1.39 ± 0.071
19 | ZR751 BREAST | 1.01 ± 0.04 | 1.29 ± 0.17 | 1.14 ± 0.14 | 0.881 ± 0.14 | 0.71 ± 0.18 | 0.766 ± 0.045 | 1.17 ± 0.19 | 1.07 ± 0.1 | 0.7 ± 0.1 | 0.472 ± 0.07 | 0.492 ± 0.054 | 0.431 ± 0.057 | 0.297 ± 0.064 | 0.263 ± 0.041 | 1.05 ± 0.087 | 0.926 ± 0.14
